Data as given in article PMC7899551, “Phase 1 study of Z-endoxifen in patients with advanced gynecologic, desmoid, and hormone receptor-positive solid tumors” (Oncotarget, 2021).
Like-named read-outs stand apart in the source and are kept apart here.

Test: Plasma pharmacokinetics of Z-endoxifen (HPLC assay, non-compartmental analysis)
Type: in vivo, human
Settings: human, plasma, po
Protocol: This was an open-label trial of Z-endoxifen in patients with advanced solid tumors (https://clinicaltrials.gov/ identifier: NCT01273168). Z-endoxifen-HCl was supplied by the Pharmaceutical Management Branch, National Cancer Institute, as 20 and 40 mg capsules; agent was administered orally once daily on a continuous schedule in 28-day cycles with a starting dose of 20 mg/day taken either 1 hour before or 2 hours after meals. Dose escalation followed a traditional 3+3 design in which patients were dose-escalated to the next dose level (DL) in cohorts of 3 patients until dose-limiting toxicity (DLT) was observed. DLT was defined as an adverse event that occurred during cycle 1, was thought to be related to study drug administration, and met one of the following criteria: grade ≥ 3 non-hematologic toxicities (except diarrhea, nausea and vomiting, alopecia, rising creatinine or electrolyte toxicities that resolved within 24 hours, or intolerable estrogen withdrawal symptoms) or grade ≥ 3 hematologic toxicities (except neutropenia lasting less than 5 days, lymphopenia, or anemia). Eight dose levels (DL1-8) were examined: 20, 40, 60, 100, 140, 200, 280, and 360 mg, respectively. Two patients at DL8 received the free base form of Z-endoxifen on day 1 rather than the hydrochloride salt to assess the pharmacokinetics of that formulation.
A 3-mL blood sample was collected in a K2 EDTA tube on day 1 of cycle 1 before drug administration and at the following times post-first dose: 0.5, 1, 2, 3, 4, 6, 8, and 24 hours. Samples were collected at the same time points on day 28 of cycle 1 for DL1-6 until a protocol amendment eliminated the requirement for these samples at the higher dose levels. Samples were wrapped in aluminum foil after collection to protect from light exposure. A 10-mL aliquot of urine was collected before agent administration on cycle 1 day 1, for 24 hours after dosing on day 1, and before drug administration on cycle 2 day 1; samples were refrigerated prior to analysis.
Plasma and urine concentrations of Z- and E-endoxifen were measured using a validated, post-column fluorescence derivatization HPLC assay. Non-compartmental pharmacokinetic parameters were calculated using WinNonlin version 7.0 (Pharsight Corp., Mountainview, CA, USA). A 2 μM Cmax target was established for day 28 plasma concentration. The amount of Z-endoxifen excreted in urine was measured over a 24-hour collection period.

SMILES: CC/C(=C(\c1ccc(O)cc1)c1ccc(OCCNC)cc1)c1ccccc1 [Z-endoxifen]
- Cmax (20 mg/day, DL1 20 mg/day oral, day 28, mean, read-out: Cmax, Mean): 286 ng/mL
- Tmax (20 mg/day, DL1 20 mg/day oral, day 28, mean, read-out: Tmax, Mean): 0.7 h
- AUC(0-t) (40 mg, DL2 40 mg oral, day 1, individual patients, read-out: AUC(0-24h)): 1290 ng·h/mL
- Cmax (40 mg, DL2 40 mg oral, day 1, individual patients, read-out: Cmax): 83.6 ng/mL
- AUC(0-t) (40 mg, DL2 40 mg oral, day 1, mean, read-out: AUC(0-24h), Mean): 1650 ng·h/mL
- concentration at 24 h (40 mg, DL2 40 mg oral, day 1, mean, read-out: C24h, Mean): 52.5 ng/mL
- Cmax (40 mg, DL2 40 mg oral, day 1, mean, read-out: Cmax, Mean): 112 ng/mL
- AUC(0-t) (40 mg/day, DL2 40 mg/day oral, day 28, individual patients, read-out: AUC(0-24h)): 5570 ng·h/mL
- half-life (40 mg/day, DL2 40 mg/day oral, day 28, individual patients, read-out: Adjusted Half-Life (converted)): 39.3 h
- concentration at 24 h (40 mg/day, DL2 40 mg/day oral, day 28, individual patients, read-out: C24h): 136 ng/mL
- Cmax (40 mg/day, DL2 40 mg/day oral, day 28, individual patients, read-out: Cmax): 321 ng/mL
- AUC(0-t) (40 mg/day, DL2 40 mg/day oral, day 28, mean, read-out: AUC(0-24h), Mean): 4760 ng·h/mL
- concentration at 24 h (40 mg/day, DL2 40 mg/day oral, day 28, mean, read-out: C24h, Mean): 147 ng/mL
- Cmax (40 mg/day, DL2 40 mg/day oral, day 28, mean, read-out: Cmax, Mean): 258 ng/mL
- Tmax (40 mg/day, DL2 40 mg/day oral, day 28, mean, read-out: Tmax, Mean): 3.3 h
- AUC(0-t) (60 mg, DL3 60 mg oral, day 1, individual patients, read-out: AUC(0-24h)): 1620 ng·h/mL
- concentration at 24 h (60 mg, DL3 60 mg oral, day 1, individual patients, read-out: C24h): 89.7 ng/mL
- Cmax (60 mg, DL3 60 mg oral, day 1, individual patients, read-out: Cmax): 89.7 ng/mL
- AUC(0-t) (60 mg, DL3 60 mg oral, day 1, mean, read-out: AUC(0-24h), Mean): 2140 ng·h/mL
- concentration at 24 h (60 mg, DL3 60 mg oral, day 1, mean, read-out: C24h, Mean): 82.7 ng/mL
- Cmax (60 mg, DL3 60 mg oral, day 1, mean, read-out: Cmax, Mean): 122 ng/mL
- Tmax (60 mg, DL3 60 mg oral, day 1, mean, read-out: Tmax, Mean): 12 h
- AUC(0-t) (60 mg/day, DL3 60 mg/day oral, day 28, mean, read-out: AUC(0-24h), Mean): 8080 ng·h/mL
- concentration at 24 h (60 mg/day, DL3 60 mg/day oral, day 28, mean, read-out: C24h, Mean): 345 ng/mL
- Cmax (60 mg/day, DL3 60 mg/day oral, day 28, mean, read-out: Cmax, Mean): 417 ng/mL
- Tmax (60 mg/day, DL3 60 mg/day oral, day 28, mean, read-out: Tmax, Mean): 10.8 h
- AUC(0-t) (100 mg, DL4 100 mg oral, day 1, individual patients, read-out: AUC(0-24h)): 4640 ng·h/mL
- concentration at 24 h (100 mg, DL4 100 mg oral, day 1, individual patients, read-out: C24h): 133 ng/mL
- Cmax (100 mg, DL4 100 mg oral, day 1, individual patients, read-out: Cmax): 264 ng/mL
- Tmax (100 mg, DL4 100 mg oral, day 1, individual patients, read-out: Tmax): 1 h
- AUC(0-t) (100 mg, DL4 100 mg oral, day 1, mean, read-out: AUC(0-24h), Mean): 5000 ng·h/mL
- concentration at 24 h (100 mg, DL4 100 mg oral, day 1, mean, read-out: C24h, Mean): 155 ng/mL
- Cmax (100 mg, DL4 100 mg oral, day 1, mean, read-out: Cmax, Mean): 296 ng/mL
- Tmax (100 mg, DL4 100 mg oral, day 1, mean, read-out: Tmax, Mean): 4.3 h
- AUC(0-t) (100 mg/day, DL4 100 mg/day oral, day 28, individual patients, read-out: AUC(0-24h)): 13300 ng·h/mL
- half-life (100 mg/day, DL4 100 mg/day oral, day 28, individual patients, read-out: Adjusted Half-Life (converted)): 36.8 h
- concentration at 24 h (100 mg/day, DL4 100 mg/day oral, day 28, individual patients, read-out: C24h): 428 ng/mL
- Cmax (100 mg/day, DL4 100 mg/day oral, day 28, individual patients, read-out: Cmax): 1300 ng/mL
- Tmax (100 mg/day, DL4 100 mg/day oral, day 28, individual patients, read-out: Tmax): 2 h
- AUC(0-t) (100 mg/day, DL4 100 mg/day oral, day 28, mean (one patient), read-out: AUC(0-24h), Mean): 13300 ng·h/mL
- half-life (100 mg/day, DL4 100 mg/day oral, day 28, mean (one patient), read-out: Adjusted Half-Life, Mean (converted)): 36.8 h
- concentration at 24 h (100 mg/day, DL4 100 mg/day oral, day 28, mean (one patient), read-out: C24h, Mean): 428 ng/mL
- Cmax (100 mg/day, DL4 100 mg/day oral, day 28, mean, read-out: Cmax, Mean): 1010 ng/mL
- Tmax (140 mg, DL5 140 mg oral, day 1, individual patients, read-out: Tmax): 3 h
- AUC(0-t) (140 mg, DL5 140 mg oral, day 1, mean, read-out: AUC(0-24h), Mean): 9760 ng·h/mL
- concentration at 24 h (140 mg, DL5 140 mg oral, day 1, mean, read-out: C24h, Mean): 311 ng/mL
- Cmax (140 mg, DL5 140 mg oral, day 1, mean, read-out: Cmax, Mean): 610 ng/mL
- Tmax (140 mg, DL5 140 mg oral, day 1, mean, read-out: Tmax, Mean): 4.3 h
- AUC(0-t) (140 mg/day, DL5 140 mg/day oral, day 28, individual patients, read-out: AUC(0-24h)): 18200 ng·h/mL
- half-life (140 mg/day, DL5 140 mg/day oral, day 28, individual patients, read-out: Adjusted Half-Life (converted)): 33.1 h
- concentration at 24 h (140 mg/day, DL5 140 mg/day oral, day 28, individual patients, read-out: C24h): 598 ng/mL
- Cmax (140 mg/day, DL5 140 mg/day oral, day 28, individual patients, read-out: Cmax): 973 ng/mL
- Tmax (140 mg/day, DL5 140 mg/day oral, day 28, individual patients, read-out: Tmax): 1 h
- AUC(0-t) (140 mg/day, DL5 140 mg/day oral, day 28, mean, read-out: AUC(0-24h), Mean): 17400 ng·h/mL
- half-life (140 mg/day, DL5 140 mg/day oral, day 28, mean, read-out: Adjusted Half-Life, Mean (converted)): 30.6 h
- concentration at 24 h (140 mg/day, DL5 140 mg/day oral, day 28, mean, read-out: C24h, Mean): 563 ng/mL
- Cmax (140 mg/day, DL5 140 mg/day oral, day 28, mean, read-out: Cmax, Mean): 1110 ng/mL
- AUC(0-t) (200 mg, DL6 200 mg oral, day 1, individual patients, read-out: AUC(0-24h)): 6340 ng·h/mL
- concentration at 24 h (200 mg, DL6 200 mg oral, day 1, individual patients, read-out: C24h): 279 ng/mL
- Tmax (200 mg, DL6 200 mg oral, day 1, individual patients, read-out: Tmax): 2 h
- AUC(0-t) (200 mg, DL6 200 mg oral, day 1, mean, read-out: AUC(0-24h), Mean): 9220 ng·h/mL
- concentration at 24 h (200 mg, DL6 200 mg oral, day 1, mean, read-out: C24h, Mean): 336 ng/mL
- Cmax (200 mg, DL6 200 mg oral, day 1, mean, read-out: Cmax, Mean): 517 ng/mL
- half-life (200 mg/day, DL6 200 mg/day oral, day 28, individual patients, read-out: Adjusted Half-Life (converted)): 34.8 h
- AUC(0-t) (200 mg/day, DL6 200 mg/day oral, day 28, mean, read-out: AUC(0-24h), Mean): 30800 ng·h/mL
- concentration at 24 h (200 mg/day, DL6 200 mg/day oral, day 28, mean, read-out: C24h, Mean): 1070 ng/mL
- Cmax (200 mg/day, DL6 200 mg/day oral, day 28, mean, read-out: Cmax, Mean): 1640 ng/mL
- Cmax (280 mg, DL7 280 mg oral, day 1, individual patients, read-out: Cmax): 888 ng/mL
- Tmax (280 mg, DL7 280 mg oral, day 1, individual patients, read-out: Tmax): 3 h
- AUC(0-t) (280 mg, DL7 280 mg oral, day 1, mean, read-out: AUC(0-24h), Mean): 15000 ng·h/mL
- concentration at 24 h (280 mg, DL7 280 mg oral, day 1, mean, read-out: C24h, Mean): 468 ng/mL
- Cmax (280 mg, DL7 280 mg oral, day 1, mean, read-out: Cmax, Mean): 930 ng/mL
- Tmax (360 mg, DL8 360 mg oral, day 1, individual patients, read-out: Tmax): 2 h
- AUC(0-t) (360 mg, DL8 360 mg oral, day 1, mean (excluding patients 35 and 36), read-out: AUC(0-24h), Mean): 20500 ng·h/mL
- concentration at 24 h (360 mg, DL8 360 mg oral, day 1, mean (excluding patients 35 and 36), read-out: C24h, Mean): 676 ng/mL
- Cmax (360 mg, DL8 360 mg oral, day 1, mean (excluding patients 35 and 36), read-out: Cmax, Mean): 1310 ng/mL
- Tmax (360 mg, DL8 360 mg oral, day 1, mean (excluding patients 35 and 36), read-out: Tmax, Mean): 3.9 h
- AUC(0-t) (360 mg, HCl salt, 360 mg oral, day 2 (after free base on day 1), mean of patients 35 and 36, read-out: AUC(0–24 h), Mean): 41600 ng·h/mL
- concentration at 24 h (360 mg, HCl salt, 360 mg oral, day 2 (after free base on day 1), mean of patients 35 and 36, read-out: C24 h, Mean): 1470 ng/mL
- concentration at 24 h (360 mg, HCl salt, 360 mg oral, day 2 (after free base on day 1), patients 35 and 36 individually, read-out: C24 h): 827 ng/mL
